Converted amounts (≈) assume the structure as drawn.
Experiments:
Format in all cases: functional
[1] = tested on: Mycobacterium tuberculosis; assay: Antituberculosis activity against Mycobacterium tuberculosis H37Rv assessed as growth inhibition after 12 to 28 days by L-J MIC method; details: for MIC: Mycobacterium tuberculosis, H37Rv
Candida albicans [2] = assay: Antimicrobial activity against Candida albicans MTCC 183 assessed as growth inhibition after 48 hr by agar streak dilution method; details: MTCC 183, 48 h
Aspergillus clavatus [3] = assay: Antimicrobial activity against Aspergillus clavatus MTCC 1323 assessed as growth inhibition after 48 hr by agar streak dilution method; details: MTCC 1323, 48 h
Aspergillus fumigatus [4] = assay: Antimicrobial activity against Aspergillus fumigatus MTCC 343 assessed as growth inhibition after 48 hr by agar streak dilution method; details: MTCC 343, 48 h
Aspergillus niger [5] = assay: Antimicrobial activity against Aspergillus niger MTCC 282 assessed as growth inhibition after 48 hr by agar streak dilution method; details: MTCC 282, 48 h
Shigella flexneri [6] = assay: Antimicrobial activity against Shigella flexneri MTCC1457 assessed as growth inhibition after 24 hr by agar streak dilution method; details: MTCC1457, 24 h
Proteus vulgaris [7] = assay: Antimicrobial activity against Proteus vulgaris MTCC 1771 assessed as growth inhibition after 24 hr by agar streak dilution method; details: MTCC 1771, 24 h
Salmonella typhi [8] = assay: Antimicrobial activity against Salmonella enterica subsp. enterica serovar Typhi MTCC 733 assessed as growth inhibition after 24 hr by agar streak dilution method; details: MTCC 733, 24 h
Klebsiella pneumoniae [9] = assay: Antimicrobial activity against Klebsiella pneumoniae MTCC 109 assessed as growth inhibition after 24 hr by agar streak dilution method; details: MTCC 109, 24 h
Pseudomonas aeruginosa [10] = assay: Antimicrobial activity against Pseudomonas aeruginosa MTCC 741 assessed as growth inhibition after 24 hr by agar streak dilution method; details: MTCC 741, 24 h
Escherichia coli [11] = assay: Antimicrobial activity against Escherichia coli MTCC 739 assessed as growth inhibition after 24 hr by agar streak dilution method; details: MTCC 739, 24 h
Bacillus cereus [12] = assay: Antimicrobial activity against Bacillus cereus MTCC 430 assessed as growth inhibition after 24 hr by agar streak dilution method; details: MTCC 430, 24 h
Staphylococcus aureus [13] = assay: Antimicrobial activity against Staphylococcus aureus MTCC 96 assessed as growth inhibition after 24 hr by agar streak dilution method; details: MTCC 96, 24 h
Candida albicans [14] = assay: Antimicrobial activity against Candida albicans MTCC 183 assessed as diameter of growth inhibition zone after 48 hr; also: test concentration or dose not given here
Aspergillus clavatus [15] = assay: Antimicrobial activity against Aspergillus clavatus MTCC 1323 assessed as diameter of growth inhibition zone after 48 hr; also: test concentration or dose not given here
Aspergillus fumigatus [16] = assay: Antimicrobial activity against Aspergillus fumigatus MTCC 343 assessed as diameter of growth inhibition zone after 48 hr; also: test concentration or dose not given here
Aspergillus niger [17] = assay: Antimicrobial activity against Aspergillus niger MTCC 282 assessed as diameter of growth inhibition zone after 48 hr; also: test concentration or dose not given here
Shigella flexneri [18] = assay: Antimicrobial activity against Shigella flexneri MTCC1457 assessed as diameter of growth inhibition zone after 24 hr
Proteus vulgaris [19] = assay: Antimicrobial activity against Proteus vulgaris MTCC 1771 assessed as diameter of growth inhibition zone after 24 hr
Salmonella typhi [20] = assay: Antimicrobial activity against Salmonella enterica subsp. enterica serovar Typhi MTCC 733 assessed as diameter of growth inhibition zone after 24 hr
Klebsiella pneumoniae [21] = assay: Antimicrobial activity against Klebsiella pneumoniae MTCC 109 assessed as diameter of growth inhibition zone after 24 hr; also: test concentration or dose not given here
Pseudomonas aeruginosa [22] = assay: Antimicrobial activity against Pseudomonas aeruginosa MTCC 741 assessed as diameter of growth inhibition zone after 24 hr
Escherichia coli [23] = assay: Antimicrobial activity against Escherichia coli MTCC 739 assessed as diameter of growth inhibition zone after 24 hr; also: test concentration or dose not given here
Bacillus cereus [24] = assay: Antimicrobial activity against Bacillus cereus MTCC 430 assessed as diameter of growth inhibition zone after 24 hr; also: test concentration or dose not given here
Staphylococcus aureus [25] = assay: Antimicrobial activity against Staphylococcus aureus MTCC 96 assessed as diameter of growth inhibition zone after 24 hr; also: test concentration or dose not given here

| SMILES | growth inhibition (GI) [1] | MIC [1] | MIC (Candida albicans [2]) | MIC (Aspergillus clavatus [3]) | MIC (Aspergillus fumigatus [4]) | MIC (Aspergillus niger [5]) | MIC (Shigella flexneri [6]) | MIC (Proteus vulgaris [7]) | MIC (Salmonella typhi [8]) | MIC (Klebsiella pneumoniae [9]) | MIC (Pseudomonas aeruginosa [10]) | MIC (Escherichia coli [11]) | MIC (Bacillus cereus [12]) | MIC (Staphylococcus aureus [13]) | diameter of the inhibition zone (DIZ) (Candida albicans [14]) | diameter of the inhibition zone (DIZ) (Aspergillus clavatus [15]) | diameter of the inhibition zone (DIZ) (Aspergillus fumigatus [16]) | diameter of the inhibition zone (DIZ) (Aspergillus niger [17]) | diameter of the inhibition zone (DIZ) (Shigella flexneri [18]) | diameter of the inhibition zone (DIZ) (Proteus vulgaris [19]) | also measured |
| --- | --- | --- | --- | --- | --- | --- | --- | --- | --- | --- | --- | --- | --- | --- | --- | --- | --- | --- | --- | --- | --- |
| N#Cc1c(-c2ccc(O)cc2O)cc(-c2ccc(Nc3cc(=O)oc4ccccc34)cc2)nc1N | 97% | 100 µg/mL (≈ 216 µM) | 12.5 µg/mL (≈ 27 µM) | 6.25 µg/mL (≈ 13.5 µM) | 6.25 µg/mL (≈ 13.5 µM) | 12.5 µg/mL (≈ 27 µM) | 6.25 µg/mL (≈ 13.5 µM) | 12.5 µg/mL (≈ 27 µM) | 3.12 µg/mL (≈ 6.75 µM) | 3.12 µg/mL (≈ 6.75 µM) | 6.25 µg/mL (≈ 13.5 µM) | 12.5 µg/mL (≈ 27 µM) | 6.25 µg/mL (≈ 13.5 µM) | 12.5 µg/mL (≈ 27 µM) | 23 mm | 27 mm | 25 mm | 22 mm | 26 mm | 23 mm | diameter of the inhibition zone (DIZ) (Salmonella typhi [20]): 28 mm; diameter of the inhibition zone (DIZ) (Klebsiella pneumoniae [21]): 30 mm; diameter of the inhibition zone (DIZ) (Pseudomonas aeruginosa [22]): 27 mm; diameter of the inhibition zone (DIZ) (Escherichia coli [23]): 24 mm; diameter of the inhibition zone (DIZ) (Bacillus cereus [24]): 26 mm; diameter of the inhibition zone (DIZ) (Staphylococcus aureus [25]): 22 mm |
| COc1ccc(-c2cc(-c3ccc(Nc4cc(=O)oc5ccccc45)cc3)nc(N)n2)cc1 | 98% | 62.5 µg/mL (≈ 143 µM) | 25 µg/mL (≈ 57.3 µM) | 12.5 µg/mL (≈ 28.6 µM) | 25 µg/mL (≈ 57.3 µM) | 12.5 µg/mL (≈ 28.6 µM) | 50 µg/mL (≈ 115 µM) | 12.5 µg/mL (≈ 28.6 µM) | 50 µg/mL (≈ 115 µM) | 25 µg/mL (≈ 57.3 µM) | 12.5 µg/mL (≈ 28.6 µM) | 25 µg/mL (≈ 57.3 µM) | 12.5 µg/mL (≈ 28.6 µM) | 12.5 µg/mL (≈ 28.6 µM) | 24 mm | 23 mm | 20 mm | 23 mm | 19 mm | 24 mm | diameter of the inhibition zone (DIZ) (Salmonella typhi [20]): 19 mm; diameter of the inhibition zone (DIZ) (Klebsiella pneumoniae [21]): 20 mm; diameter of the inhibition zone (DIZ) (Pseudomonas aeruginosa [22]): 21 mm; diameter of the inhibition zone (DIZ) (Escherichia coli [23]): 22 mm; diameter of the inhibition zone (DIZ) (Bacillus cereus [24]): 21 mm; diameter of the inhibition zone (DIZ) (Staphylococcus aureus [25]): 22 mm |
| N#Cc1c(-c2ccc([N+](=O)[O-])cc2)cc(-c2ccc(Nc3cc(=O)oc4ccccc34)cc2)nc1N | 96% | 250 µg/mL (≈ 526 µM) | 12.5 µg/mL (≈ 26.3 µM) | 25 µg/mL (≈ 52.6 µM) | 25 µg/mL (≈ 52.6 µM) | 25 µg/mL (≈ 52.6 µM) | 50 µg/mL (≈ 105 µM) | 50 µg/mL (≈ 105 µM) | 12.5 µg/mL (≈ 26.3 µM) | 25 µg/mL (≈ 52.6 µM) | 50 µg/mL (≈ 105 µM) | 25 µg/mL (≈ 52.6 µM) | 25 µg/mL (≈ 52.6 µM) | 50 µg/mL (≈ 105 µM) | 23 mm | 22 mm | 20 mm | 23 mm | 20 mm | 19 mm | diameter of the inhibition zone (DIZ) (Salmonella typhi [20]): 23 mm; diameter of the inhibition zone (DIZ) (Klebsiella pneumoniae [21]): 19 mm; diameter of the inhibition zone (DIZ) (Pseudomonas aeruginosa [22]): 20 mm; diameter of the inhibition zone (DIZ) (Escherichia coli [23]): 22 mm; diameter of the inhibition zone (DIZ) (Bacillus cereus [24]): 22 mm; diameter of the inhibition zone (DIZ) (Staphylococcus aureus [25]): 17 mm |
| CC(=O)N1N=C(c2ccc(Nc3cc(=O)oc4ccccc34)cc2)CC1c1ccc(Cl)cc1 (configuration not stated) | 97% | 250 µg/mL (≈ 546 µM) | 50 µg/mL (≈ 109 µM) | 100 µg/mL (≈ 218 µM) | 50 µg/mL (≈ 109 µM) | 100 µg/mL (≈ 218 µM) | 50 µg/mL (≈ 109 µM) | 50 µg/mL (≈ 109 µM) | 50 µg/mL (≈ 109 µM) | 50 µg/mL (≈ 109 µM) | 100 µg/mL (≈ 218 µM) | 100 µg/mL (≈ 218 µM) | 100 µg/mL (≈ 218 µM) | 50 µg/mL (≈ 109 µM) | 19 mm | 15 mm | 17 mm | 16 mm | 20 mm | 19 mm | diameter of the inhibition zone (DIZ) (Salmonella typhi [20]): 18 mm; diameter of the inhibition zone (DIZ) (Klebsiella pneumoniae [21]): 21 mm; diameter of the inhibition zone (DIZ) (Pseudomonas aeruginosa [22]): 14 mm; diameter of the inhibition zone (DIZ) (Escherichia coli [23]): 15 mm; diameter of the inhibition zone (DIZ) (Bacillus cereus [24]): 17 mm; diameter of the inhibition zone (DIZ) (Staphylococcus aureus [25]): 19 mm |
| CC(=O)N1N=C(c2ccc(Nc3cc(=O)oc4ccccc34)cc2)CC1c1ccc(O)cc1O (configuration not stated) | 97% | 250 µg/mL (≈ 549 µM) | 50 µg/mL (≈ 110 µM) | 25 µg/mL (≈ 54.9 µM) | 12.5 µg/mL (≈ 27.4 µM) | 25 µg/mL (≈ 54.9 µM) | 25 µg/mL (≈ 54.9 µM) | 12.5 µg/mL (≈ 27.4 µM) | 25 µg/mL (≈ 54.9 µM) | 6.25 µg/mL (≈ 13.7 µM) | 25 µg/mL (≈ 54.9 µM) | 25 µg/mL (≈ 54.9 µM) | 50 µg/mL (≈ 110 µM) | 50 µg/mL (≈ 110 µM) | 17 mm | 22 mm | 24 mm | 21 mm | 20 mm | 22 mm | diameter of the inhibition zone (DIZ) (Salmonella typhi [20]): 21 mm; diameter of the inhibition zone (DIZ) (Klebsiella pneumoniae [21]): 23 mm; diameter of the inhibition zone (DIZ) (Pseudomonas aeruginosa [22]): 22 mm; diameter of the inhibition zone (DIZ) (Escherichia coli [23]): 20 mm; diameter of the inhibition zone (DIZ) (Bacillus cereus [24]): 20 mm; diameter of the inhibition zone (DIZ) (Staphylococcus aureus [25]): 19 mm |
| N#Cc1c(-c2ccc(Cl)cc2Cl)cc(-c2ccc(Nc3cc(=O)oc4ccccc34)cc2)nc1N | 99% | 25 µg/mL (≈ 50.1 µM) | 12.5 µg/mL (≈ 25 µM) | 25 µg/mL (≈ 50.1 µM) | 12.5 µg/mL (≈ 25 µM) | 12.5 µg/mL (≈ 25 µM) | 12.5 µg/mL (≈ 25 µM) | 3.12 µg/mL (≈ 6.25 µM) | 12.5 µg/mL (≈ 25 µM) | 12.5 µg/mL (≈ 25 µM) | 6.25 µg/mL (≈ 12.5 µM) | 12.5 µg/mL (≈ 25 µM) | 6.25 µg/mL (≈ 12.5 µM) | 3.12 µg/mL (≈ 6.25 µM) | 23 mm | 22 mm | 23 mm | 22 mm | 23 mm | 28 mm | diameter of the inhibition zone (DIZ) (Salmonella typhi [20]): 24 mm; diameter of the inhibition zone (DIZ) (Klebsiella pneumoniae [21]): 23 mm; diameter of the inhibition zone (DIZ) (Pseudomonas aeruginosa [22]): 25 mm; diameter of the inhibition zone (DIZ) (Escherichia coli [23]): 20 mm; diameter of the inhibition zone (DIZ) (Bacillus cereus [24]): 26 mm; diameter of the inhibition zone (DIZ) (Staphylococcus aureus [25]): 28 mm |
| N#Cc1c(-c2ccccc2)cc(-c2ccc(Nc3cc(=O)oc4ccccc34)cc2)nc1N | 96% | 500 µg/mL (≈ 1160 µM) | 25 µg/mL (≈ 58.1 µM) | 12.5 µg/mL (≈ 29 µM) | 25 µg/mL (≈ 58.1 µM) | 25 µg/mL (≈ 58.1 µM) | 50 µg/mL (≈ 116 µM) | 25 µg/mL (≈ 58.1 µM) | 12.5 µg/mL (≈ 29 µM) | 25 µg/mL (≈ 58.1 µM) | 50 µg/mL (≈ 116 µM) | 50 µg/mL (≈ 116 µM) | 50 µg/mL (≈ 116 µM) | 50 µg/mL (≈ 116 µM) | 19 mm | 23 mm | 21 mm | 21 mm | 17 mm | 19 mm | diameter of the inhibition zone (DIZ) (Salmonella typhi [20]): 23 mm; diameter of the inhibition zone (DIZ) (Klebsiella pneumoniae [21]): 21 mm; diameter of the inhibition zone (DIZ) (Pseudomonas aeruginosa [22]): 18 mm; diameter of the inhibition zone (DIZ) (Escherichia coli [23]): 19 mm; diameter of the inhibition zone (DIZ) (Bacillus cereus [24]): 19 mm; diameter of the inhibition zone (DIZ) (Staphylococcus aureus [25]): 17 mm |
